From patent US9839614B2, “Nanoparticle and polymer formulations for thyroid hormone analogs, antagonists, and formulations and uses thereof” (NANOPHARMACEUTICALS LLC, priority 2009, dated 2017)

Experiments:
[1] = tested on: SKN-SH, SaOS2 and MCF7 cells, drug-sensitive and -resistant; test: Proliferation of drug-sensitive versus drug-resistant cancer cells (MTT assay); format: cell-based; settings: 4 days
Method: Drug-sensitive and -resistant SKN-SH (FIGS. 13C-D), SaOS2 (FIGS. 13A-B), and MCF7 (FIGS. 13E-F) cells were subjected to treatment with increasing concentrations of Tetrac or Doxirubicin over a period of 4 days. Cell viability was then measured by MTT assay. The data represent the average of 4 determinations±SE.
Doxorubicin resistant SKN-SH/R, MCF7/R and SaOS2/R cells were subjected to treatment with Tetrac either alone or in combination with each of doxorubicin (Dox), etoposide (Etop), cisplatin (Cisp), or trichostatin A (TSA) at the indicated concentrations, After 4 days in cell viability was determined by the MTT assay and the data represented as average of 3 determinations±SE.

MCF7 and MCF7/R cells = test: Intracellular accumulation of radiolabeled doxorubicin; format: cell-based; settings: 24 hours, presence of Tetrac
Method: The cells were incubated for 24 hours with doxorubicin in the absence or the presence of Tetrac, after that they were washed and then solubilized. Radioactivity associated with the cell lysates was counted and compared between the two cell lines either treated or not with Tetrac. The data represent an average of 3 determinations±SE.

[2] = tested on: MDA-MB-231 cells gene expression; test: RNA microarray of MDA-MB-231 cells (Example 16); format: cell-based, human
Method: MDA-MB-231 cells were purchased from ATCC (Manassas, Va.). Cells were maintained until use in DMEM that contained 10% FBS. The incubator conditions were 5% CO2/95% 02 and 37° C. The action of unmodified Tetrac and nanoparticulate on MDA-MB-231 cells was determined in a perfusion bellows cell culture system we have recently described for quantitating pharmaceutical agent pharmacodynamics in vitro. (See Lin et al., J Steroid Biochem Mol Biol 113: 182-188 (2009)). In brief, the cell culture system is a disposable bioreactor capable of high density cell culture for studies of anti-cancer drugs. Bellows-induced alternate flow of culture medium and air through porous matrices where cells are grown provides a relatively low shear, high aeration, foam-free culture environment. Medium level is raised and lowered to submerge and expose matrices to create a dynamic interface between air and media on the cell surface. Anchorage-dependent cells are grown on plastic flakes in the system. The flakes facilitate harvesting of whole cells for analysis. In the present studies, 5×10^7 cells were seeded in each perfusion flask and incubated at 37 C overnight. Flakes thereafter were sampled at regular intervals (FIG. 44), subjected to trypsinization and the harvested cells counted. When Tetrac or nanoparticulate Tetrac were initially added to the system, flasks contained 20-50×10^6 cells. Cell cultures were re-fed with 1% FBS-containing medium. Studies were carried out in duplicate flasks and replicated once. • Cell culture for harvesting of RNA. MDA-MB-231 cells were maintained in DMEM that was supplemented with 10% FBS in a 5% CO2/95% 02 air incubator at 37° C. For two days prior to exposure to Tetrac and nanoparticulate Tetrac, cells were maintained in 0.25% FBS that was stripped of estrogen and thyroid hormone. (See Lin et al., Biochemistry 42: 7571-7579 (2003)). • RNA microarray and analysis. Microarray analysis experiments were conducted as described previously. (See Glinsky et al., J Clin Invest 115: 1503-1521 (2005); Glinsky et al., J Clin Invest 113: 913-923 (2004); Glinsky et al., Clin Cancer Res 10: 2272-2283 (2004); and Glinsky et al., Mol Carcinog 37: 209-221 (2003)). […] Sample purity and integrity were verified with an Agilent BioAnalyzer (Santa Clara, Calif.). Expression analysis of 54,675 transcripts for each sample was by Affymetrix HG-U133A Plus 2.0 arrays. MAS5.0 software was used for data retrieval and analysis and concordant changes of gene expression in response to unmodified Tetrac and nanoparticulate Tetrac were defined by two-tailed t test at a threshold p value <0.01. Results • Effects of Tetrac and nanoparticulate Tetrac on MDA-MB-231 cell proliferation. […] Unmodified Tetrac at 10^−6M, introduced at day 0, inhibited cell proliferation by more than 30% by day 9. […] Actions shown here of nanoparticulate Tetrac on these pairs of genes are antithetic to tumor cell survival. […] A third pathway affected by the agents was that of the catenins. (See Takemaru et al., Nature 422: 905-909 (2003)). CBY1 is a potent inhibitor of β-catenin and the Wnt/β-catenin system, which are major survival pathways in cancer cells. CBY1 expression was induced by Tetrac and Tetrac NP.

[3] = tested on: chick chorioallantoic membrane (CAM) blood vessel branching; test: Chorioallantoic membrane (CAM) model of angiogenesis; format: in vivo
Method: In vivo neovascularization was examined by methods described previously. 9-12 Ten-day-old chick embryos were purchased from SPAFAS (Preston, Conn.) and incubated at 37° C. with 55% relative humidity. A hypodermic needle was used to make a small hole in the shell concealing the air sac, and a second hole was made on the broad side of the egg, directly over an avascular portion of the embryonic membrane that was identified by candling. A false air sac was created beneath the second hole by the application of negative pressure at the first hole, causing the CAM to separate from the shell. A window approximately 1.0 cm^2 was cut in the shell over the dropped CAM with a small-crafts grinding wheel (Dremel, division of Emerson Electric Co.), allowing direct access to the underlying CAM. […] Sterile disks of No. 1 filter paper (Whatman International) were pretreated with 3 mg/mL cortisone acetate and 1 mmol/L PTU and air dried under sterile conditions. Thyroid hormone, hormone analogs, FGF2 or control solvents, and inhibitors were then applied to the disks and the disks allowed to dry. The disks were then suspended in PBS and placed on growing CAMs. […] At 24 hours, the MAPK cascade inhibitor PD 98059 was also added to CAMs topically by means of the filter disks.
After incubation at 37° C. with 55% relative humidity for 3 days, the CAM tissue directly beneath each filter disk was resected from control and treated CAM samples. Tissues were washed 3× with PBS, placed in 35-mm Petri dishes (Nalge Nunc), and examined under an SV6 stereomicroscope (Zeiss) at X50 magnification. Digital images of CAM sections exposed to filters were collected using a 3-charge-coupled device color video camera system (Toshiba) and analyzed with Image-Pro software (Media Cybernetics). The number of vessel branch points contained in a circular region equal to the area of each filter disk were counted. One image was counted in each CAM preparation, and findings from 8 to 10 CAM preparations were analyzed for each treatment condition (thyroid hormone or analogs, FGF2, FGF2 antibody, PD 98059). In addition, each experiment was performed 3 times. The resulting angiogenesis index is the mean±SEM of new branch points.

SMILES: O=C(O)Cc1cc(I)c(Oc2cc(I)c(O)c(I)c2)c(I)c1 [Tetrac, tetraiodothyroacetic acid]
- anti-proliferative activity against drug-sensitive and drug-resistant cells ([1]; MTT): equivalent anti-proliferative activity
- cellular responses to doxorubicin, etoposide, cisplatin and TSA combined with Tetrac ([1]; resistant cells): significantly enhanced
- intracellular accumulation of radiolabeled doxorubicin (MCF7 and MCF7/R cells): increased significantly
- BCL2L14 expression ([2]; MDA-MB-231): not a significant stimulatory action
- CASP2 expression ([2]; MDA-MB-231): not a significant stimulatory action
- CBY1 expression ([2]; MDA-MB-231): significantly increased
- MCL1 expression ([2]; MDA-MB-231): did not significantly affect
- THBS1 expression ([2]; MDA-MB-231): upregulation
- XIAP expression ([2]; MDA-MB-231): also acted on XIAP
- EGFR expression ([2]; MDA-MB-231 (FIG. 50)): ineffective
- Mean % Inhibition ([3]; FGF (1.25 μg/ml) + Tetrac or analog at 10 μg/plug): 85%
- effect on action of T4 on angiogenesis ([3]; Tetrac 0.1 μmol/L with T4): inhibited the action of T4
- effect of Tetrac alone on angiogenesis ([3]; Tetrac alone): no effect on angiogenesis
- effect on action of T4-agarose on angiogenesis ([3]; Tetrac with T4-agarose 0.1 μmol/L): inhibited
